Test results published in patent US10745380B2, “Pyridine derivatives and their use in the treatment of cancer and hemoglobinopathies” (CTXT PTY LTD, priority 2016, dated 2020).
Where a name gives a salt, the structure may show the parent alone.

Tests used:
[1] = molecular target: Full-length PRMT5 enzyme co-expressed with His6-MEP50 (Homo sapiens (Human), UniProt O14744); assay: PRMT5 Biochemical Assay; settings: Transcreener EPIGEN methyltransferase assay, histone H4 derived peptide substrate, 4 hours at 37 degree Celsius
Protocol: Assays PRMT5 Biochemical Assay
Compounds of the invention may be tested for in vitro activity in the following assay: A histone H4 derived peptide is used as substrate (amino acid sequence: […]NH2). Full-length PRMT5 enzyme (NCBI Reference sequence NP_006100.2) was co-expressed with His6-MEP50 in insect cells and purified via Nickel immobilized metal affinity and gel filtration chromatography (“the enzyme”).
The 6 μL reactions are run in Greiner brand black 384-well low volume assay plates. All reactions contained assay buffer (phosphate buffered saline, 0.01% (v/v) Tween-20, 0.01% (w/v) albumin from chicken egg white, 1 mM Dithiothreitol, 1 μM peptide substrate, 1 μM S-Adenosyl methionine, and 15 ng/reaction enzyme, with the enzyme being omitted from negative control reactions. Compounds were added in a volume of 100 nL from dilution series prepared in DMSO, positive and negative control reactions receiving the same volume DMSO without compound. The plates were sealed with adhesive seals and incubated for 4 hours at 37 degree Celsius. Reaction progress was measured using the Transcreener™ EPIGEN methyltransferase assay (BellBrook Labs, Madison, Wis.) as recommended by the manufacturer. To each reaction 2 μL detection mix were added, containing coupling enzymes, fluorescence polarisation tracer, and AMP antibody. […]

[2] = system: TE11 cell line; assay: PRMT5 Biomarker Assay (symmetrical dimethylation of arginine, Histone H4 Arginine 3); type: cell-based; settings: TE11 cells, 72 hours incubation, Di-Methyl Histone H4 Arginine 3 level
Protocol: Compounds of the invention may be tested for potency to inhibit symmetrical dimethylation of arginine in the following assay:
The cell line TE11 was seeded at a density of 6,000 cells per well in 96 well optical quality tissue culture plates in DME medium and 10% foetal bovine serum, and allowed to adhere for 5 hours under standard culture conditions (37 degree Celsius, 5% CO2). Compound dilutions prepared in DMSO were added to the medium, with negative control wells reserved for treatment with DMSO only and maximum inhibition controls receiving a potent PRMT5 inhibitor compound at 1 μM concentration. After incubation for 72 hours, the cells were fixed with 3.7% formaldehyde in PBS for 30 minutes at room temperature, washed with phosphate buffer saline and blocked with Odyssey blocking buffer (LI-COR, Lincoln, Nebr.). Rabbit anti-Di-Methyl Histone H4 Arginine 3 specific antibody (Epigentek) in Odyssey blocking buffer was added and incubated for 14 hours at 4 degree Celsius. […] Plates were washed and read on a PerkinElmer Envision 2103 in fluorescence intensity scanning mode (24 scans across the well area). […] Using a Columbus image analysis pipeline, individual nuclei were located by Hoechst 33342 stain and the methylation level was calculated from the Alexa647-related intensity in the same area. […]

Full-length PRMT5 enzyme co-expressed with His6-MEP50, sequence (O14744 whole entry): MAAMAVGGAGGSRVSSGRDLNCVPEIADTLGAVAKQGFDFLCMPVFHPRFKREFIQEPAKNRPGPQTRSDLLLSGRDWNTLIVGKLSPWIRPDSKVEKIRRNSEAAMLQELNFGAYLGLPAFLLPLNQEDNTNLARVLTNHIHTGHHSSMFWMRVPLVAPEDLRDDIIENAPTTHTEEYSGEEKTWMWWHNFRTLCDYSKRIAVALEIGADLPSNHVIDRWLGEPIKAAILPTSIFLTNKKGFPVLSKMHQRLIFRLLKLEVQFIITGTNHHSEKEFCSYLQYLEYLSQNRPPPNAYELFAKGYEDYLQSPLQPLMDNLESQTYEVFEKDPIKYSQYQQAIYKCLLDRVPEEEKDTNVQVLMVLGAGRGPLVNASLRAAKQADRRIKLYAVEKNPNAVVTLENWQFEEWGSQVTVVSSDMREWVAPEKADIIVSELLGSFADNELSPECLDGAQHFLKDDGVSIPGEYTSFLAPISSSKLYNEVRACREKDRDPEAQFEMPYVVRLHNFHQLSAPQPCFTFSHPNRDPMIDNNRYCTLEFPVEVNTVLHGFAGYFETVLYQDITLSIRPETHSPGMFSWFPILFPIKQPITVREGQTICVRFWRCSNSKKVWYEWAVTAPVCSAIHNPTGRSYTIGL
Full-length PRMT5 enzyme co-expressed with His6-MEP50, sequence (Q9BQA1 whole entry partner): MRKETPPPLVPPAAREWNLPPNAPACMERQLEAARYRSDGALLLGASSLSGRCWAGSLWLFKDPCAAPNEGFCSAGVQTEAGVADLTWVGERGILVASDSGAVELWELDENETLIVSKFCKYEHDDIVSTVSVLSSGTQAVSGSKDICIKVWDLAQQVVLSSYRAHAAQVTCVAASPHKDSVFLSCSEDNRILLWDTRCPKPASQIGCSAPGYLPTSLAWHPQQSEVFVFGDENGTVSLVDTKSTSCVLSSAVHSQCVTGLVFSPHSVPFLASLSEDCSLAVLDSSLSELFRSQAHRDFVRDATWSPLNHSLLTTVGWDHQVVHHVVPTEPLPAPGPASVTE

IC50 ([2]; Homo sapiens, TE-11) [nM] | SMILES | IC50 [1] [nM] | IC50 [2] [nM]
 | CCOc1nc(OCc2ccccc2)ccc1C(=O)NC[C@@H](O)CNC1Cc2ccccc2C1 [Compound 1, (S)-6-(Benzyloxy)-N-(3-((2,3-dihydro-1H-inden-2-yl)amino)-2-hydroxypropyl)-2-ethoxy nicotin amide hydrochloride] | 86 | 79
35 | CC(=O)N1CCC(Nc2nccc(C(=O)NC[C@@H](O)CNC3Cc4ccccc4C3)c2Cl)CC1 [Compound 2] | 105 | 
